According to patent US20070244108A1 (priority 2004, published 2007):

What was measured:
Human 11β HSD1 = molecular target: T1, Human 11β HSD1 (Homo sapiens, UniProt P28845); experiment: 11β HSD1 cortisol radioimmunoassay (RIA), human hepatic microsomes; assay type: biochemical; details: 10 μM compound; typical sd ± 5%, N=2
T1 construct: human hepatic microsomes were obtained from XenoTech, product H0610/Lot 0210078; tissue XenoTech H0610/Lot 0210078; host or cells: human liver (hepatic microsomes)
Protocol: Standard Operating Procedure for the 11β-Hydroxysteroid Dehydrogenase Type 1 cortisol Radioimmunoassay (11β HSD1 Cortisol RIA).
Prepare 10 mM stock solutions in 100% DMSO at 100 times the required assay concentration. Dilute into assay buffer 1 in 25. Also dilute neat DMSO 1 in 25 into assay buffer for controls.
Dilute this 1 in 50 into assay buffer.
Mix these 3 solutions 1:1:1 to make a solution of sufficient volume for 25 μl additions to each sample.
Dilute stock 20 mg/ml solution 1 in 100 with assay buffer.
Dilute stock antibody solution to 17 μg/ml in antibody binding buffer.
To a u-bottom polypropylene 96 well plate add:
25 μl compound dilution or diluted DMSO to controls, NSB's and blanks
10 μl […] in DMSO (enzyme stop solution) to blanks
25 μl substrate mixture to all samples
50 μl diluted microsomes to all samples
Incubate plate for 30 min at 37° C. shaking
Add 10 μl enzyme stop solution to all wells except the blanks
Add 100 μl antibody solution to all wells except the NSB's, add antibody binding buffer to these wells
Incubate at 37° C. for 1 h
Add 50 μl/well charcoal solution and mix with an 8-channel pipette (4-5 aspirations)
Centrifuge at 4° C., 2000×g for 15 min
Transfer 100 μl supernatant into an Optiplate, also add 25 μl substrate mixture to 2 empty wells to indicate counting efficiency
Add 200 μl Microscint-40 to all wells and count on a Topcount
The 11β HSD1 enzyme assay was carried out following the standard operating procedure described above in u-bottom polypropylene 96 well plates or 1.5 ml Eppendorf tubes as indicated for each experiment. Subsequent to stopping the enzyme reaction, 100 μl antibody prepared in buffer 3 unless otherwise indicated was added to test samples and 100 μl buffer 3 was added to the NSB samples. […] Aliquots of the supernatant (100 μl) were transferred to an Optiplate and counted on the Topcount in 150-200 μl Microscint 40. In some experiments, aliquots of supernatant were transferred to scintillation vials and counted on the Tricarb LSC in 5 ml Ultima Gold scintillant.

T1 sequence (P28845 whole entry): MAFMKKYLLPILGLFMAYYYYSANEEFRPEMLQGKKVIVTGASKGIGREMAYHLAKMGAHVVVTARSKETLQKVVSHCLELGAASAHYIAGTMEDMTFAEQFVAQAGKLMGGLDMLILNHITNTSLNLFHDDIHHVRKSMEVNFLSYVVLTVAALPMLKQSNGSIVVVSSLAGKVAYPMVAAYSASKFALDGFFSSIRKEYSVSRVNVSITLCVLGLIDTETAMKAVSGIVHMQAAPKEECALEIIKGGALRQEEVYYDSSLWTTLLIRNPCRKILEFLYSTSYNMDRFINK

CCCc1ccc(S(=O)(=O)NN2CCN(C)CC2)cc1 [STX551, N-(4-Methylpiperazin-1-yl)-4-propylbenzenesulfonamide]
inhibition at 10 µM (Human 11β HSD1): > 35% | melting point: 153 to 154 °C

CCCc1ccc(S(=O)(=O)NN2CCOCC2)cc1 [STX586, N-Morpholin-4-yl-4-propyl-benzenesulfonamide]
inhibition at 10 µM (Human 11β HSD1): > 35% | melting point: 150 to 152 °C

CCCc1ccc(S(=O)(=O)NCCc2ncc[nH]2)cc1 [STX578, N-[2-(4H-Imidazol-2-yl)-ethyl]-4-propylbenzenesulfonamide]
inhibition at 10 µM (Human 11β HSD1): > 35%
